# Test system: Human glioma U87-luc cells
# Assay: In vivo efficacy in U87 orthotopic xenograft model (bioluminescence imaging)
# Set-up: species or system BALB/c nude mice
# Conditions: for Bioluminescence Signal (photons/sec), Mean: 30 mg/kg, PO, QD, U87-luc orthotopic
# Method: V. In Vivo Efficacy of Compounds of the Present Disclosure in U87 Orthotopic Xenograft Models
# Cell Culture: Human glioma U87-luc cells (Caliper-124577) were cultured as monolayers in vitro. The cells were maintained in EMEM supplemented with 10% fetal bovine serum (FBS), 100 U/mL penicillin, and 100 µg/mL streptomycin in an incubator at 37°C with 5% CO2. Routine subculturing was performed twice weekly using trypsin-EDTA. When the cells reached 80-90% confluence and the required cell number was achieved, the cells were harvested, counted, and prepared for inoculation.
# Animals: Female BALB/c nude mice, weighing 18-20 g. A total of 50 mice were obtained (target study size of 24 mice, with an […]). The animals were provided by Beijing Vital River Laboratory Animal Technology Co., Ltd.
# Tumor Inoculation: Prior to cell inoculation, each nude mouse was anesthetized via intraperitoneal injection of 1.25% avertin at a dose of 20 µL/g. The anesthetized mouse was fixed onto a stereotaxic instrument. The scalp was disinfected with 70% ethanol and covered with a sterile drape. A midline longitudinal incision (approximately 1 cm) was made to expose the skull. A small hole was drilled using a cranial drill at the coordinates 2 mm right and 0.5 mm anterior to the bregma. Using a microsyringe, 3 µL of U87-luc cell suspension (3.0×10^5 cells in PBS containing 20% Matrigel) was injected into the hole at a depth of 3.5 mm from the skull surface. The burr hole was sealed with tissue adhesive (or bone wax), the incision was sutured, and the skin was disinfected with povidone-iodine solution. The animals were kept warm on a heating pad during the recovery period and monitored until fully awake before being returned to their cages.
# Analgesia: For analgesia, Meloxicam (3 mg/kg) was injected subcutaneously 30 minutes prior to surgery and 24 hours post-surgery.
# Bioluminescence Imaging: Mice were weighed and administered D-luciferin (150 mg/kg) via intraperitoneal injection. Ten minutes post-injection, the mice were anesthetized using a mixture of oxygen and isoflurane. Once fully anesthetized, the animals were transferred to the IVIS Lumina III in vivo imaging system for detection. Bioluminescence measurements were acquired for all mice at 13 minutes post-injection. Whole-body bioluminescence, including metastatic tumors, was measured and images were captured. Imaging was performed on Day 7 post-inoculation and weekly thereafter following grouping and dosing (5 time points in total). The data are presented as bioluminescence signal values.
# Animal Grouping: Seven days after cell inoculation, 24 mice were selected from the total of 50 mice based on their bioluminescence values. Using an Excel-based stratified randomization procedure, the mice were divided into 3 groups (8 mice per group): the Vehicle group, the 15 mg/kg BID group, and the 30 mg/kg QD group.
# Experimental Endpoint: The experimental endpoint is animal survival.
# Monitoring and Data Analysis: Animals were monitored daily, and the time of death was recorded. […] If an animal's health deteriorated or it became moribund (characterized by significant weight loss >20%, inability to eat or drink normally, difficulty moving, or paralysis), it was considered a mortality event and immediately euthanized via CO2 inhalation.
# The Median Survival Time (MST, days) was calculated for each group. The Increase in Life-Span (ILS) was calculated by comparing the MST of the treatment group to that of the model control group, expressed as a percentage increase over the control group. The calculation is as follows: ILS(%) = (MSTt−MSTv)/MSTv × 100 [formula] Where: • MSTt: Median Survival Time of the treatment group • MSTv: Median Survival Time of the Vehicle group
# Tumor Growth Monitoring: Bioluminescence signal intensity was used to monitor intracranial tumor growth. Bioluminescence imaging was performed once or twice weekly. […]
compound,measurement,setting,value
"CN(C(=O)c1ccc2nc(N)c3cncn3c2c1)[C@@H]1COc2cc(C(F)(F)F)ccc21 [Example 107, (S)-4-amino-N-methy 1-N-(6-(trifluoromethy 1)-2,3-dihydrobenzofuran-3-yl)imidazo[1,5-a]quinoxaline-8-carboxamide]",Tumor Growth Inhibition (TGI) rate,"30 mg/kg once daily (QD) for 28 days, U87MG orthotopic mouse xenograft",exceeding 100%
same,"Bioluminescence Signal (photons/sec), Mean",day 0,5.837E+06 photons/sec
same,"Bioluminescence Signal (photons/sec), Mean",day 7,1.419E+06 photons/sec
same,"Bioluminescence Signal (photons/sec), Mean",day 14,1.930E+06 photons/sec
same,"Bioluminescence Signal (photons/sec), Mean",day 21,1.968E+06 photons/sec
same,"Bioluminescence Signal (photons/sec), Mean",day 28,2.412E+06 photons/sec
